# Starred links: 1 amine or outer side, 2 acyl side, 3 side chain; linkers in the order of their positions; H or OH if unused. Positions of bridges follow the written chain, without caps; N, C: chain ends. Non-standard residues stand in square brackets, D forms with d. Residues, ends and D or L forms follow the SMILES beside them. Groups on a side chain read outwards from the residue. *: point of attachment. C20 diacid = O=C(O)CCCCCCCCCCCCCCCCCCC(=O)*; γGlu = O=C(O)[C@H](CCC(=O)[*:2])N[*:1]; αMeL = CC(C)C[C@](C)(N)C(=O)O; Orn = NCCC[C@H](N)C(=O)O; CH2 = C([*:1])[*:2]
# Tests used:
# [1] = Food intake and body weight in normal rats, single SC dose; type: in vivo, Sprague Dawley rats; conditions: for Δ Body Weight: 96 hours post dose vs initial weights; for Cumulative Food Intake Change vs Vehicle: 96 hours post dose vs vehicle
# Procedure: Male Sprague Dawley rats from Envigo RMS (Indianapolis, IN) are maintained on a chow diet (2014; Teklad Global, Envigo RMS, Indianapolis, IN) and single housed in a temperature-controlled facility (72.0° F.; 22.2° C.) with a reversed 12:12-hour light cycle (10 AM OFF) and free access to food and water. At 10 weeks of age, non-fasted body weights and initial food weights are recorded, and animals are administered a single subcutaneous injection (SC) of vehicle or acylated peptide (1 mL/kg), followed by daily measurements of body weight and food intake for 4 days post dose. Area under the curve analysis (AUC) is calculated for both body weight and food intake versus vehicle.
# [2] = Body weight and body composition in diet-induced obese rats, 2-week study; type: in vivo, Long Evan rats; conditions: DIO rats, at 2 weeks vs initial
# Procedure: Male Long Evan rats from Envigo RMS (Indianapolis, IN) at 14 weeks of age are put on a high fat diet (40% of kcal from fat, TD.95217; Envigo RMS, Indianapolis, IN) until 35-45 weeks old. Animals are individually housed in a temperature-controlled facility (75.0° F.; 23.9° C.) with a 12-hour reverse light/dark cycle (lights OFF at 10 AM) and free access to food and water. Body weights are recorded and body composition (fat mass) is determined using Quantitative Nuclear Magnetic Resonance Analysis (ECHO MRI, 3-1 Composition Analyzer; Echo Medical Systems, Houston, TX), followed by randomization into experimental groups (n=5). Rats are administered subcutaneous injections of vehicle or peptide (1 mL/kg) every three days (day 1, 4, 7, 10, and 13). Daily body weights are recorded and changes at end of treatment (day 14) are calculated as percentages versus pre-treatment weights (day 1). Body composition is determined on day 14, and changes in fat mass and fat-free mass (body weight−fat mass) are calculated from pre-treatment values as gram changes.
# [3] = 100 nmol/kg SC every three days
structure (smiles),measurement,setting,value
CC[C@H](C)[C@H](NC(=O)[C@@H]1CCCN1C(=O)CNC(=O)[C@H](Cc1ccccc1)NC(=O)[C@H](CC(N)=O)NC(=O)[C@H](Cc1c[nH]cn1)NC(=O)[C@H](CO)NC(=O)[C@H](CO)NC(=O)[C@H](CCCNC(=N)N)NC(=O)[C@@H](NC(=O)[C@H](CC(C)C)NC(=O)[C@H](Cc1ccccc1)NC(=O)[C@H](CCC(=O)O)NC(=O)[C@H](C)NC(=O)[C@](C)(CC(C)C)NC(=O)[C@H](CCCN)NC(=O)CNC(=O)[C@@H](NC(=O)[C@H](C)NC(=O)[C@@H]1CSCSC[C@H](NC(=O)[C@@H](N)CCCCNC(=O)CC[C@H](NC(=O)CC[C@H](NC(=O)CCCCCCCCCCCCCCCCCCC(=O)O)C(=O)O)C(=O)O)C(=O)N[C@@H](CCC(=O)O)C(=O)N[C@@H]([C@@H](C)O)C(=O)N[C@@H](C)C(=O)N[C@@H]([C@@H](C)O)C(=O)N1)[C@@H](C)O)C(C)C)C(=O)N[C@@H](CC(C)C)C(=O)N1CCC[C@H]1C(=O)N1CCC[C@H]1C(=O)N[C@H](C(=O)N[C@@H](CCC(=O)O)C(=O)N[C@H](C(=O)NCC(=O)N[C@@H](CO)C(=O)N[C@@H](CC(N)=O)C(=O)N[C@H](C(=O)N[C@@H](Cc1ccc(O)cc1)C(N)=O)[C@@H](C)O)C(C)C)[C@@H](C)O [Compound VIII] (H-K([γGlu-γGlu-C20 diacid])CETATCATG[Orn][αMeL]AEFLVRSSHNFGPILPPTEVGSNTY-NH2; linker 2-7 via CH2),Δ Body Weight,[1]; 0.1 nmol/kg SC single dose,2.0%
same,Cumulative Food Intake Change vs Vehicle,[1]; 0.1 nmol/kg SC single dose,1.3%
same,Δ Body Weight,[1]; 0.3 nmol/kg SC single dose,1.6%
same,Cumulative Food Intake Change vs Vehicle,[1]; 0.3 nmol/kg SC single dose,3.2%
same,Δ Body Weight,[1]; 1 nmol/kg SC single dose,−1.0%
same,Cumulative Food Intake Change vs Vehicle,[1]; 1 nmol/kg SC single dose,−17.5%
same,Δ Body Weight,[1]; 3 nmol/kg SC single dose,−3.9%
same,Cumulative Food Intake Change vs Vehicle,[1]; 3 nmol/kg SC single dose,−37.7%
same,Δ Body Weight,[1]; 10 nmol/kg SC single dose,−7.2%
same,Cumulative Food Intake Change vs Vehicle,[1]; 10 nmol/kg SC single dose,−58.5%
same,Δ Body Weight,[1]; 30 nmol/kg SC single dose,−10.8%
same,Cumulative Food Intake Change vs Vehicle,[1]; 30 nmol/kg SC single dose,−67.0%
same,Δ Body Weight,[1]; 100 nmol/kg SC single dose,−13.8%
same,Cumulative Food Intake Change vs Vehicle,[1]; 100 nmol/kg SC single dose,−75.2%
same,Δ Body Weight,[1]; 300 nmol/kg SC single dose,−13.6%
same,Cumulative Food Intake Change vs Vehicle,[1]; 300 nmol/kg SC single dose,−74.9%
same,Δ Body Weight,[1]; 1000 nmol/kg SC single dose,−18.9%
same,Cumulative Food Intake Change vs Vehicle,[1]; 1000 nmol/kg SC single dose,−84.7%
same,Δ Body Weight,[2]; 1 nmol/kg SC every three days,−6.0%
same,Δ Fat Mass,[2]; 1 nmol/kg SC every three days,-36.6 g
same,Δ Fat-Free Mass,[2]; 1 nmol/kg SC every three days,-4.7 g
same,Δ Body Weight,[2]; 10 nmol/kg SC every three days,−9.0%
same,Δ Fat Mass,[2]; 10 nmol/kg SC every three days,-54.3 g
same,Δ Fat-Free Mass,[2]; 10 nmol/kg SC every three days,-7.2 g
same,Δ Body Weight,[2]; [3],−11.5%
same,Δ Fat Mass,[2]; [3],-56.4 g
same,Δ Fat-Free Mass,[2]; [3],-26.9 g

# From patent US12551532B2, “Long-acting amylin receptor agonists and uses thereof” (Eli Lilly and Company, priority 2021, dated 2026)
